US20250235455A1, “AQUEOUS TICAGRELOR SOLUTIONS, METHOD OF MANUFACTURING AND USES” (HYLORIS DEVELOPMENTS SA, priority 2022, published 2025)
Marks after values point to notes of the source that are not given here.

Tests used:
[1] = phosphate buffered solution pH 7.4, normal laboratory light and temperature; cited from earlier work
[2] = Clear aqueous ticagrelor-cyclodextrin solutions considering 65 mg dose; format: physicochemical; settings: using 20-40% w/w HPβCD
[3] = Solubility of ticagrelor in HPβCD (appearance on shaking platform); format: physicochemical
Experimental: In a first example two different types of cyclodextrin were used and compared for the solubilization of ticagrelor. An unbuffered stock solution of HPβCD or SBECD was made in water at the target concentrations of 20 w/w %, 25 w/w %, 30 w/w %, 35 w/w % and 40 w/w %. Ticagrelor was added slowly under vortex. Ticagrelor was used at concentrations of 5, 10 or 14 mg/ml in milli Q water. The ticagrelor-cyclodextrin solutions were left on a shaking platform. No sonification or heat was applied.

[4] = Impact of packaging on stability, HPβCD 32.5% w/w, 5 mM pH 7.5 phosphate buffer, 40° C./75% RH; format: physicochemical; settings: for Assay: in %
Experimental: To study the potential impact of the packaging material on the stability of the ticagrelor-cyclodextrin inclusion complex a composition with 32.5% w/w HPβCD was prepared with procedures and precaution's similar to previous trials, samples were stored in transparent clear glass vials and amber colored glass vials at a temperature of 40° C./75% RH.

[5] = Solubility of ticagrelor in aqueous vitamin E TPGS solutions; format: physicochemical
Experimental: Aqueous ticagrelor solutions were prepared using vitamin E TPGS as solubilizer for ticagrelor. Water soluble vitamin E TPGS was added to water to obtain different concentrations of 2.5 and 5.0 and 10.0 w/v % aqueous vitamin E TPGS solutions. To these solutions, kept at a temperate of 45° C.+/−5° C., portions of ticagrelor were gradually added.
In the experiment summarized in Table 29, 3 mg ticagrelor portions were added step-by-step to a 50 ml aqueous vitamin E TPGS solution (1st stage).
20 ml of each diluent were then used in a 2nd stage study. To 20 ml of each diluent 10 mg ticagrelor portions were added. This was reduced to 5 mg when the dissolution was taking longer.

[6] = HPβCD 20% w/w, ticagrelor 5 mg/ml
[7] = HPβCD 20% w/w, ticagrelor 10 mg/ml
[8] = HPβCD 20% w/w, ticagrelor 14 mg/ml
[9] = HPβCD 25% w/w, ticagrelor 5 mg/ml
[10] = HPβCD 25% w/w, ticagrelor 10 mg/ml
[11] = HPβCD 25% w/w, ticagrelor 14 mg/ml
[12] = HPβCD 30% w/w, ticagrelor 5 mg/ml
[13] = HPβCD 30% w/w, ticagrelor 10 mg/ml
[14] = HPβCD 30% w/w, ticagrelor 14 mg/ml
[15] = HPβCD 35% w/w, ticagrelor 5 mg/ml
[16] = HPβCD 35% w/w, ticagrelor 10 mg/ml
[17] = HPβCD 35% w/w, ticagrelor 14 mg/ml
[18] = HPβCD 40% w/w, ticagrelor 5 mg/ml
[19] = HPβCD 40% w/w, ticagrelor 10 mg/ml
[20] = HPβCD 40% w/w, ticagrelor 14 mg/ml
[21] = Amber colour USP Type I Glass vials, 1 M
[22] = Amber colour USP Type I Glass vials, 2 M
[23] = Amber colour USP Type I Glass vials, 3 M
[24] = Amber colour USP Type I Glass vials, T0
[25] = Clear USP Type I Glass vials, 1 M
[26] = Clear USP Type I Glass vials, 2 M
[27] = Clear USP Type I Glass vials, 3 M
[28] = Clear USP Type I Glass vials, T0

CCCSc1nc(N[C@@H]2C[C@H]2c2ccc(F)c(F)c2)c2nnn([C@@H]3C[C@H](OCCO)[C@@H](O)[C@H]3O)c2n1 [Ticagrelor, (1S,2S,3R,5S)-3-{7-[(1R,2S)-2-(3,4-difluorophenyl)cyclopropylamino]5-(propylthio)-3H-(1,2,3)triazolo (4,5-D)pyrimidin-3-yl}-5-(2 hydroxyethoxy)cyclopentane-1,2-diol]
Ticagrelor concentration on storage [1]: declined after 1 month
Ticagrelor solution concentration achieved [2]: 5 to 13 mg/mL
Appearance ([3]; 5 mg/ml ticagrelor with 25, 30, 35 and 40 w/w % HPβCD): Clear
Appearance on standing ([3]; 5 mg/ml, HPβCD 40%, 35% or 30% w/w in milliQ water, at least three days at room temperature and several days at 4° C.): remained clear
Appearance After 5 min of shaking [3, 6]: − (translucent solution with precipitation)
Appearance After 30 min of shaking [3, 6]: +/−
Appearance After 60 min of shaking [3, 6]: +/−
Appearance After 3 h of shaking [3, 6]: +/−
Appearance After overnight shaking [3, 6]: − (translucent solution with precipitation)
Appearance After 5 min of shaking [3, 7]: − (translucent solution with precipitation)
Appearance After 30 min of shaking [3, 7]: − (translucent solution with precipitation)
Appearance After 60 min of shaking [3, 7]: − (translucent solution with precipitation)
Appearance After 3 h of shaking [3, 7]: − (translucent solution with precipitation)
Appearance After overnight shaking [3, 7]: − (translucent solution with precipitation)
Appearance After 5 min of shaking [3, 8]: − (translucent solution with precipitation)
Appearance After 30 min of shaking [3, 8]: − (translucent solution with precipitation)
Appearance After 60 min of shaking [3, 8]: − (translucent solution with precipitation)
Appearance After 3 h of shaking [3, 8]: − (translucent solution with precipitation)
Appearance After overnight shaking [3, 8]: − (translucent solution with precipitation)
Appearance After 5 min of shaking [3, 9]: − (translucent solution with precipitation)
Appearance After 30 min of shaking [3, 9]: +/−
Appearance After 60 min of shaking [3, 9]: +/−
Appearance After 3 h of shaking [3, 9]: +/−
Appearance After overnight shaking ([3]; HPβCD 25% w/w, ticagrelor 5 mg/ml, after one hour of sonication): +* (clear, appeared completely dissolved)
Appearance After 5 min of shaking [3, 10]: − (translucent solution with precipitation)
Appearance After 30 min of shaking [3, 10]: − (translucent solution with precipitation)
Appearance After 60 min of shaking [3, 10]: − (translucent solution with precipitation)
Appearance After 3 h of shaking [3, 10]: − (translucent solution with precipitation)
Appearance After overnight shaking [3, 10]: − (translucent solution with precipitation)
Appearance After 5 min of shaking [3, 11]: − (translucent solution with precipitation)
Appearance After 30 min of shaking [3, 11]: − (translucent solution with precipitation)
Appearance After 60 min of shaking [3, 11]: − (translucent solution with precipitation)
Appearance After 3 h of shaking [3, 11]: − (translucent solution with precipitation)
Appearance After overnight shaking [3, 11]: − (translucent solution with precipitation)
Appearance After 5 min of shaking [3, 12]: − (translucent solution with precipitation)
Appearance After 30 min of shaking [3, 12]: +/−
Appearance After 60 min of shaking [3, 12]: +/−
Appearance After 3 h of shaking [3, 12]: +/−
Appearance After overnight shaking [3, 12]: + (clear, appeared completely dissolved)
Appearance After 5 min of shaking [3, 13]: − (translucent solution with precipitation)
Appearance After 30 min of shaking [3, 13]: − (translucent solution with precipitation)
Appearance After 60 min of shaking [3, 13]: − (translucent solution with precipitation)
Appearance After 3 h of shaking [3, 13]: − (translucent solution with precipitation)
Appearance After overnight shaking [3, 13]: − (translucent solution with precipitation)
Appearance After 5 min of shaking [3, 14]: − (translucent solution with precipitation)
Appearance After 30 min of shaking [3, 14]: − (translucent solution with precipitation)
Appearance After 60 min of shaking [3, 14]: − (translucent solution with precipitation)
Appearance After 3 h of shaking [3, 14]: − (translucent solution with precipitation)
Appearance After overnight shaking [3, 14]: − (translucent solution with precipitation)
Appearance After 5 min of shaking [3, 15]: +/−
Appearance After 30 min of shaking [3, 15]: +/−
Appearance After 60 min of shaking [3, 15]: +/−
Appearance After 3 h of shaking [3, 15]: +/−
Appearance After overnight shaking [3, 15]: + (clear, appeared completely dissolved)
Appearance After 5 min of shaking [3, 16]: − (translucent solution with precipitation)
Appearance After 30 min of shaking [3, 16]: +/−
Appearance After 60 min of shaking [3, 16]: +/−
Appearance After 3 h of shaking [3, 16]: +/−
Appearance After overnight shaking [3, 16]: + (clear, appeared completely dissolved)
Appearance After 5 min of shaking [3, 17]: − (translucent solution with precipitation)
Appearance After 30 min of shaking [3, 17]: +/−
Appearance After 60 min of shaking [3, 17]: +/−
Appearance After 3 h of shaking [3, 17]: +/−
Appearance After overnight shaking [3, 17]: +/−
Appearance After 5 min of shaking [3, 18]: + (clear, appeared completely dissolved)
Appearance After 30 min of shaking [3, 18]: + (clear, appeared completely dissolved)
Appearance After 60 min of shaking [3, 18]: + (clear, appeared completely dissolved)
Appearance After 3 h of shaking [3, 18]: + (clear, appeared completely dissolved)
Appearance After overnight shaking [3, 18]: + (clear, appeared completely dissolved)
Appearance After 5 min of shaking [3, 19]: − (translucent solution with precipitation)
Appearance After 30 min of shaking [3, 19]: +/−
Appearance After 60 min of shaking [3, 19]: +/−
Appearance After 3 h of shaking [3, 19]: +/−
Appearance After overnight shaking [3, 19]: + (clear, appeared completely dissolved)
Appearance After 5 min of shaking [3, 20]: − (translucent solution with precipitation)
Appearance After 30 min of shaking [3, 20]: +/−
Appearance After 60 min of shaking [3, 20]: +/−
Appearance After 3 h of shaking [3, 20]: +/−
Acetal impurity [4, 21]: 0.05%
Amine impurity [4, 21]: 0.04%
Description [4, 21]: clear
Regiomer [4, 21]: 0.01%
Sum Impurities >0.05 [4, 21]: 0.05%
Total impurity [4, 21]: 0.22%
Triol impurity [4, 21]: 0.02%
pH [4, 21]: 7.70
Assay [4, 21]: 100.24
Acetal impurity [4, 22]: 0.04%
Amine impurity [4, 22]: 0.04%
Description [4, 22]: clear
Regiomer [4, 22]: 0.02%
Sum Impurities >0.05 [4, 22]: 0.00%
Total impurity [4, 22]: 0.28%
Triol impurity [4, 22]: 0.04%
pH [4, 22]: 7.69
Assay [4, 22]: 99.89
Acetal impurity [4, 23]: 0.05%
Amine impurity [4, 23]: 0.06%
Description [4, 23]: clear
Regiomer [4, 23]: 0.04%
Sum Impurities >0.05 [4, 23]: 0.16%
Total impurity [4, 23]: 0.33%
Triol impurity [4, 23]: 0.05%
pH [4, 23]: 7.66
Assay [4, 23]: 98.93
Acetal impurity [4, 24]: 0.05%
Amine impurity [4, 24]: 0.04%
Description [4, 24]: clear
Regiomer [4, 24]: 0.00%
Sum Impurities >0.05 [4, 24]: 0.18%
Total impurity [4, 24]: 0.40%
Triol impurity [4, 24]: 0.04%
pH [4, 24]: 7.66
Assay [4, 24]: 98.34
Acetal impurity [4, 25]: 0.04%
Amine impurity [4, 25]: 0.04%
Description [4, 25]: clear
Regiomer [4, 25]: 0.01%
Sum Impurities >0.05 [4, 25]: 0.00%
Total impurity [4, 25]: 0.22%
Triol impurity [4, 25]: 0.03%
pH [4, 25]: 7.65
Assay [4, 25]: 101.71
Acetal impurity [4, 26]: 0.04%
Amine impurity [4, 26]: 0.04%
Description [4, 26]: clear
Regiomer [4, 26]: 0.02%
Sum Impurities >0.05 [4, 26]: 0.05%
Total impurity [4, 26]: 0.28%
Triol impurity [4, 26]: 0.05%
pH [4, 26]: 7.63
Assay [4, 26]: 99.69
Acetal impurity [4, 27]: 0.05%
Amine impurity [4, 27]: 0.06%
Description [4, 27]: clear
Regiomer [4, 27]: 0.04%
Sum Impurities >0.05 [4, 27]: 0.16%
Total impurity [4, 27]: 0.33%
Triol impurity [4, 27]: 0.05%
pH [4, 27]: 7.58
Assay [4, 27]: 98.25
Acetal impurity [4, 28]: 0.05%
Amine impurity [4, 28]: 0.04%
Description [4, 28]: clear
Regiomer [4, 28]: 0.00%
Sum Impurities >0.05 [4, 28]: 0.22%
Total impurity [4, 28]: 0.40%
Triol impurity [4, 28]: 0.05%
pH [4, 28]: 7.65
Assay [4, 28]: 98.34
Time for 10 mg ticagrelor to dissolve [5]: 5 to 10 min
